Measurements published in ChEMBL document CHEMBL5236586, “Novel ginsenoside derivatives induce apoptosis in HepG-2 cells via the MDM2-p53 signaling pathway” (Bioorg Med Chem Lett, 2022).
The source made the active and inactive calls. The calls are words filed in the database; no cut-off is given here.

Columns and labels:
HepG2 [1] = test: Antiproliferative activity against human HepG2 cells assessed as inhibition of cell growth; assay type: functional, cell-based
HepG2 [2] = test: Potency index, ratio of PD IC50 to test compound IC50 for antiproliferative activity against human HepG2 cells assessed as inhibition of cell proliferation by MTT assay; assay type: functional
A549 = test: Antiproliferative activity against human A549 cells assessed as inhibition of cell proliferation by MTT assay; assay type: functional, cell-based
PC-3 = test: Antiproliferative activity against human PC-3 cells assessed as inhibition of cell proliferation by MTT assay; assay type: functional, cell-based
HepG2 [3] = test: Antiproliferative activity against human HepG2 cells assessed as inhibition of cell proliferation by MTT assay; assay type: functional, cell-based
[4] = Cytotoxicity against mouse L929 cells assessed as inhibition of cell proliferation by MTT assay; assay type: toxicity, cell-based
HepG2 [5] = test: Effect on cell morphology in human HepG2 cells assessed as cell shrinkage at 1.25 to 5 uM by DAPI staining based analysis; assay type: functional; details: dose 1.25-5 µM
HepG2 [6] = test: Induction of apoptosis in human HepG2 cells at 1.25 to 5 uM by DAPI staining based analysis; assay type: functional, cell-based; details: dose 1.25-5 µM
[7] = molecular target: E3 ubiquitin-protein ligase Mdm2 (Homo sapiens) (UniProt Q00987); test: Inhibition of MDM2 in human HepG2 cells assessed as decrease in MDM2 protein level at 1.25 to 5 uM incubated for 12 hrs by Western blot analysis; assay type: cell-based; details: dose 1.25-5 µM
[8] = molecular target: E3 ubiquitin-protein ligase Mdm2 (Homo sapiens) (UniProt Q00987); test: Inhibition of MDM2 in human HepG2 cells assessed as increase in p53 protein level at 1.25 to 5 uM incubated for 12 hrs by Western blot analysis; assay type: cell-based; details: dose 1.25-5 µM
HepG2 [9] = test: Induction of apoptosis in human HepG2 cells assessed as increase in cleaved PARP level at 1.25 to 5 uM incubated for 12 hrs by Western blot analysis; assay type: functional, cell-based; details: dose 1.25-5 µM
HepG2 [10] = test: Induction of apoptosis in human HepG2 cells assessed as increase in Bax level at 1.25 to 5 uM incubated for 12 hrs by Western blot analysis; assay type: functional, cell-based; details: dose 1.25-5 µM
HepG2 [11] = test: Induction of apoptosis in human HepG2 cells assessed as increase in cleaved caspase-3 level at 1.25 to 5 uM incubated for 12 hrs by Western blot analysis; assay type: functional, cell-based; details: dose 1.25-5 µM
HepG2 [12] = test: Induction of apoptosis in human HepG2 cells assessed as decrease in Bcl-2 expression level at 1.25 to 5 uM incubated for 12 hrs by Western blot analysis; assay type: functional, cell-based; details: dose 1.25-5 µM
HepG2 [13] = test: Induction of apoptosis in human HepG2 cells assessed as decrease in caspase-3 expression level at 1.25 to 5 uM incubated for 12 hrs by Western blot analysis; assay type: functional, cell-based; details: dose 1.25-5 µM

E3 ubiquitin-protein ligase Mdm2 (Homo sapiens), sequence (Q00987 whole entry, looked up): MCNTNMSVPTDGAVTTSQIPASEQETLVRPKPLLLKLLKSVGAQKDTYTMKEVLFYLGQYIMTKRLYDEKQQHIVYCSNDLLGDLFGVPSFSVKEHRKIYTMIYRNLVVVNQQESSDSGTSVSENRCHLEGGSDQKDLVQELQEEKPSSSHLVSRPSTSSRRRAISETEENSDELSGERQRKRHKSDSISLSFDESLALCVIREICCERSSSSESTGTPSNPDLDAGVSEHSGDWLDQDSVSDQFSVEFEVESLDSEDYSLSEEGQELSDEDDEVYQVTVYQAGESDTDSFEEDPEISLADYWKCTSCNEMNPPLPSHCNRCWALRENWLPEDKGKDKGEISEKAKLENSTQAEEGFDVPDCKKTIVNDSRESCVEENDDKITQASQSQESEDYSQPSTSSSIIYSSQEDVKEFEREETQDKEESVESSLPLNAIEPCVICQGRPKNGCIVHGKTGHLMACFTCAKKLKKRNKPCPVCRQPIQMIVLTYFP

Structure (SMILES) | IC50 (HepG2 [1]) | Ratio IC50 (HepG2 [2]) | IC50 (A549) | IC50 (PC-3) | IC50 (HepG2 [3]) | IC50 [4] | Activity (HepG2 [5]) | Activity (HepG2 [6]) | Activity [7] | Activity [8] | Activity (HepG2 [9]) | Activity (HepG2 [10]) | Activity (HepG2 [11]) | Activity (HepG2 [12]) | Activity (HepG2 [13])
N#Cc1c(-c2cn(-c3ccccc3)nc2-c2cc3ccccc3o2)[nH]c(NN)nc1=O | 12.5 µM |  |  |  |  |  |  |  |  |  |  |  |  |  | 
CC(C)c1ccc(-c2nc(SCC(=O)O[C@H]3CC[C@@]4(C)[C@@H](CC[C@]5(C)[C@H]4C[C@@H](O)[C@@H]4C([C@@]6(C)CCCC(C)(C)O6)CC[C@]45C)C3(C)C)[nH]c(=O)c2C#N)cc1 (stereo not given in full) |  | 28 | 6.98 µM | 7.04 µM | 2.13 µM | 58.8 µM | Active | Active | Active | Active | Active | Active | Active | Active | Active
